Test results published in US8853246B2 (Dow AgroSciences LLC, priority 2009, dated 2014).
Like-named read-outs stand apart in the source and are kept apart here.

What was measured:
[1] = tested on: Sweetpotato Whitefly-Crawler (Bemisia Tabaci); experiment: Insecticidal test for sweetpotato whitefly-crawler in foliar spray assay (col. BEMITA); assay type: in vivo; settings: Bemisia tabaci, read-out: BEMITA 200 ppm (Corrected % Control, rating)
Outline: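 Cotton plants (one 3-5 cm true leaf) infested with whitefly eggs (100-300/plant), held 5-6 days at 82° F, 50% RH until crawlers developed. Sprayed to runoff at 200 ppm (acetone stock diluted in 0.025% Tween 20), four plants per treatment. Live nymphs counted after 8-9 days; % control by Abbott's correction versus solvent check.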

[2] = tested on: Green Peach Aphid (Myzus Persicae); experiment: Insecticidal test for green peach aphid in foliar spray assay (col. MYZUPE); assay type: in vivo; settings: Myzus persicae, 72 h, read-out: MYZUPE 200 ppm (Corrected % Control, rating)
Outline: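 Cabbage seedlings with 2-3 true leaves, infested with 20-50 wingless adult and nymph aphids one day earlier, sprayed to runoff at 200 ppm (acetone/methanol stock diluted in 0.025% Tween 20), four pots per treatment. After 3 days at ~25 °C, 40% RH, live aphids counted; corrected % control versus solvent-sprayed plants.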

Compound | pest or weed control at 200 ppm ([1]; Abbott's correction formula) | pest or weed control at 200 ppm ([2]; Abbott's correction formula) | melting point | pest or weed control at 200 ppm ([1]; sweetpotato whitefly-crawler) | pest or weed control at 200 ppm ([2]; green peach aphid)
CC(C)(C)OC(=O)Nc1sc(-c2cncc(F)c2)nc1I [Compound 481, tert-butyl 2-(5-fluoropyridin-3-yl)-4-iodothiazol-5-yl carbamate] | < 80% | < 80% | 148 to 149 °C | – | –
Cc1nc(-c2cncc(F)c2)sc1NC(=O)OC(C)(C)C [Compound 309] | – | – | 160 to 161 °C | < 80% | < 80%
Cc1nc(-c2cccnc2)sc1N(C)C(=S)NC(C)C [Compound 386] | – | – | 163 to 164 °C | 80 to 100% | 80 to 100%
CN(C(=O)C(C)(C)C)c1cnc(-c2cccnc2)s1 [Compound 23] | – | – | 102 to 105 °C | < 80% | 80 to 100%
CN(C(=O)C(C)(C)C[S+](C)[O-])c1cnc(-c2cncc(F)c2)s1 (stereo not drawn) [Compound 85] | – | – | 155 to 159 °C | 80 to 100% | 80 to 100%
CC(C)(C)OC(=O)N(C(=O)OC(C)(C)C)c1cnc(-c2cccnc2)s1 [Compound 422] | – | – | 114 to 117 °C | < 80% | 80 to 100%
CCN(C(=O)c1cnn(C)c1C(F)(F)F)c1sc(-c2cccnc2)nc1Cl [Compound 577] | < 80% | 80 to 100% | 115 to 117 °C | – | –
COc1ncc(-c2nc(Cl)c(N(C)C(=O)CC[S+](C)[O-])s2)cc1F (stereo not drawn) [Compound 558] | < 80% | < 80% | 132 to 135 °C | – | –
Cc1nc(-c2cncc(F)c2)sc1N(C)C(=O)C(C)CS(C)(=O)=O (stereo not drawn) [Compound 98] | – | – | 105 to 109 °C | 80 to 100% | 80 to 100%
C=CCN(C(=O)OC(C)(C)C)c1sc(-c2cccnc2)nc1C [Compound 356] | – | – | 72 to 76 °C | 80 to 100% | 80 to 100%
Cc1nc(-c2cncc(F)c2)sc1NC(=O)C(C)C[S+](C)[O-] (stereo not drawn) [Compound 145] | – | – | 194 to 198 °C | < 80% | 80 to 100%
CS[C@H]1CC1C(=O)N(C)c1sc(-c2cncc(F)c2)nc1C (stereo partly drawn) [Compound 216] | – | – | 88 to 90 °C | 80 to 100% | 80 to 100%
CSCCC(=O)N(C)c1cnc(-c2ccc(Cl)nc2)s1 [Compound 70] | – | – | 160 to 164 °C | < 80% | < 80%
Cc1nc(-c2cccnc2)sc1NC(=O)CCS(C)(=O)=O [Compound 100] | – | – | 222 to 224 °C | < 80% | 80 to 100%
CSCCCC(=O)Nc1sc(-c2cccnc2)nc1C [Compound 374] | – | – | 110 to 112 °C | 80 to 100% | 80 to 100%
Cc1nc(-c2cncc(F)c2)sc1NC(=O)C(C)C [Compound 140] | – | – | 155 to 159 °C | < 80% | 80 to 100%
CSC(C)(C)CC(=O)N(C)c1sc(-c2cncc(F)c2)nc1C [Compound 212] | – | – | 73 to 80 °C | 80 to 100% | 80 to 100%
COc1cncc(-c2nc(C)c(NC(=O)OC(C)(C)C)s2)c1 [Compound 175] | – | – | 136 to 140 °C | < 80% | < 80%
C/C=C/C(=O)N(C)c1sc(-c2cccnc2)nc1Br [Compound 526] | 80 to 100% | 80 to 100% | 121 to 125 °C | – | –
CC(C)(C)OC(=O)N(C(=O)OC(C)(C)C)c1cnc(-c2cncc(F)c2)s1 [Compound 277, di(tert-butyl)2-(5-fluoropyridin-3-yl)-1,3-thiazol-5-ylimidodicarbonate] | – | – | 94 to 96 °C | 80 to 100% | 80 to 100%
Cc1cncc(-c2nc(C)c(NC(=O)OC(C)(C)C)s2)c1 [Compound 150] | – | – | 135 to 138 °C | < 80% | 80 to 100%
CSCCOC(=O)Nc1sc(-c2cccnc2)nc1C [Compound 181] | – | – | 123 to 126 °C | < 80% | 80 to 100%
CSCC(C)C(=O)Nc1sc(-c2cncc(C#N)c2)nc1C (stereo not drawn) [Compound 172] | – | – | 127 to 131 °C | 80 to 100% | 80 to 100%
COC(=O)Nc1sc(-c2cccnc2)nc1C [Compound 202] | – | – | 159 to 160 °C | < 80% | < 80%

Compound | pest or weed control at 200 ppm ([1]; Abbott's correction formula) | pest or weed control at 200 ppm ([2]; Abbott's correction formula) | melting point | pest or weed control at 200 ppm ([1]; sweetpotato whitefly-crawler) | pest or weed control at 200 ppm ([2]; green peach aphid)
CCCC(C)OC(=O)Nc1sc(-c2cccnc2)nc1C (stereo not drawn) [Compound 376] | – | – | 88 to 94 °C | 80 to 100% | 80 to 100%
CCN(C(=O)CC[S+](C)[O-])c1sc(-c2cccnc2)nc1C (stereo not drawn) [Compound 238] | – | – | 89 to 92 °C | 80 to 100% | 80 to 100%
Cc1nc(-c2cccnc2)sc1NC(=O)C(C)(C)CS(C)(=O)=O [Compound 101] | – | – | 134 to 136 °C | 80 to 100% | 80 to 100%
CSCC(C)(C)C(=O)N(C)c1cnc(-c2cccnc2)s1 [Compound 29] | – | – | 92 to 94 °C | 80 to 100% | 80 to 100%
CC(CS(C)(=O)=O)C(=O)Nc1sc(-c2cncc(F)c2)nc1Br (stereo not drawn) [Compound 307] | – | – | 185 to 188 °C | < 80% | 80 to 100%
CN(CC[S+](C)[O-])C(=O)N(C)c1cnc(-c2cncc(F)c2)s1 (stereo not drawn) [Compound 83] | – | – | 95 to 99 °C | 80 to 100% | 80 to 100%
CCN(C(=O)c1cocn1)c1sc(-c2cccnc2)nc1Cl [Compound 570] | < 80% | 80 to 100% | 118 to 120 °C | – | –
CC(C[S+](C)[O-])C(=O)N(C)c1sc(-c2cnc(Cl)c(F)c2)nc1Cl (stereo not drawn) [Compound 474] | < 80% | < 80% | 30 to 35 °C | – | –
Cc1nc(-c2cccnc2)sc1N(C)C(=S)Nc1ccc(Cl)cc1 [Compound 398] | – | – | 53 to 54 °C | 80 to 100% | < 80%
CC(C)C(=O)N(C)c1sc(-c2cncc(F)c2)nc1Cl [Compound 263] | – | – | 123 to 125 °C | 80 to 100% | 80 to 100%
CSCC(C)(C)C(=O)N(C)c1sc(-c2cccnc2)nc1C [Compound 34] | – | – | 83 to 88 °C | 80 to 100% | 80 to 100%
CSCC(C)C(=O)N(C(=O)OC(C)(C)C)c1sc(-c2ccc(Cl)nc2)nc1C (stereo not drawn) [Compound 153] | – | – | 82 to 85 °C | 80 to 100% | < 80%
CSCC(C)C(=O)N(C)c1cnc(-c2cccnc2)s1 (stereo not drawn) [Compound 28] | – | – | 98 to 100 °C | 80 to 100% | 80 to 100%
Cc1nc(-c2cccnc2)sc1NC(=O)OC1CCCCC1 [Compound 375] | – | – | 163 to 167 °C | < 80% | < 80%
Cc1nc(-c2cncc(F)c2)sc1N(C)C(=O)C(C)C [Compound 41] | – | – | 123 °C | 80 to 100% | 80 to 100%
CCN(C(=O)C1(C)CC1(Cl)Cl)c1sc(-c2cccnc2)nc1Cl (stereo not drawn) [Compound 536] | < 80% | < 80% | 144 to 146 °C | – | –
COC(=O)CCC(=O)N(C)c1cnc(-c2cccnc2)s1 [Compound 27] | – | – | 127 to 129 °C | < 80% | 80 to 100%
CSCC(C)C(=O)Nc1sc(-c2ccc(Cl)nc2)nc1C (stereo not drawn) [Compound 169] | – | – | 142 to 146 °C | 80 to 100% | < 80%
CCN(C(=O)c1cscn1)c1sc(-c2cccnc2)nc1Cl [Compound 529] | < 80% | 80 to 100% | 82 to 86 °C | – | –
CCS(=O)(=O)N1CCCC(C(=O)Nc2sc(-c3cccnc3)nc2C)C1 (stereo not drawn) [Compound 388] | – | – | 190 to 194 °C | 80 to 100% | 80 to 100%
CSCCN(C(=O)OC(C)(C)C)c1sc(-c2cccnc2)nc1C [Compound 567] | < 80% | 80 to 100% | 63 to 68 °C | – | –
CC(=O)Nc1sc(-c2cccnc2)nc1C [Compound 186] | – | – | 180 to 182 °C | < 80% | < 80%
CN(C(=O)c1cccnc1)c1cnc(-c2cccnc2)s1 [Compound 26] | – | – | 173 to 175 °C | < 80% | < 80%
CSCC(C)(C)C(=O)N(C)c1sc(-c2cncnc2)nc1C [Compound 53] | – | – | 123 to 125 °C | 80 to 100% | < 80%
